Reference: ChEMBL document CHEMBL1201862, “PubChem BioAssay data set” (2004)
Calls of active or inactive are those of the source.

How the values were obtained:
[1] = viability of uninfected HEp-2 cells – cell-based, HTS, cytotoxicity control for RSV inhibitor project, dose response (AID 2410); assay type: functional; settings: human respiratory syncytial virus
Troponin, cardiac muscle = Troponin, cardiac muscle (Homo sapiens, UniProt P19429+P45379+P63316); experiment: Fluorescence-based biochemical high throughput dose response assay for activators of the calcium sensitivity of cardiac Regulated Thin Filaments (RTF). [Related pubchem assays (depositor defined):AID493008, AID493018, AID504382, AID504383]; assay type: protein-complex assay
[2] = biological target: T1, Voltage-gated N-type calcium channel alpha-1B subunit/Amyloid beta A4 precursor protein-binding family A member 1 (Homo sapiens, UniProt Q00975+Q02410); assay type: protein assay
[3] = biological target: T1, Voltage-gated N-type calcium channel alpha-1B subunit/Amyloid beta A4 precursor protein-binding family A member 1; assay type: protein assay; remark: listed apart in the source
[4] = reduction of Shn3 3'UTR-driven luciferase in osteoblasts – cell-based, Clone20 osteoblasts, firefly luciferase, cherry-picked, dose response (AID 624132); assay type: functional;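 further: firefly luciferase luminescence from reporter carrying the Shn3 3'UTR in osteoblasts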
[5] = loss of viability in HepG2 cells – cell-based, CellTiter-Glo, cherry-picked, cytotoxicity control for Shn3 inhibitor project, dose response (AID 624134); assay type: functional
[6] = non-specific 3'UTR reporter inhibition in Clone20-Shn3RL – cell-based, Renilla luciferase, cherry-picked, counter-screen for Shn3 inhibitor project, dose response (AID 624133); assay type: functional
Beta-galactosidase = Beta-galactosidase (Escherichia coli, UniProt Q8VNN2); experiment: detection-enzyme interference by beta-gal modulators – biochemical, E. coli enzyme, set 3, artefact control for CCR6 antagonist project, dose response (AID 504712); assay type: functional
Trypanosoma cruzi = experiment: anti-trypanosomal activity in host cells – cell-based, plate reader, dry powder, set 3, dose response (AID 493197); assay type: functional
[7] = NIH/3T3 cell viability loss – mouse embryonic fibroblasts, dry powder, set 2, cytotoxicity control, dose response (AID 493247); assay type: functional, cell-based; settings: Fibroblast
[8] = biological target: DNA dC->dU-editing enzyme APOBEC-3G (Homo sapiens, UniProt Q9HC16); assay type: functional;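 further: Dose-response counterscreen measuring inhibition of APOBEC3G DNA deaminase activity, run while confirming APOBEC3A inhibitors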
[9] = biological target: DNA dC->dU-editing enzyme APOBEC-3A (Homo sapiens, UniProt P31941); experiment: Dose Response confirmation of small molecule APOBEC3A DNA Deaminase Inhibitors via a fluorescence-based single-stranded DNA deaminase assay. [Related pubchem assays (depositor defined):AID493011, AID493024]; assay type: functional
Cytochrome P450 2D6 = Cytochrome P450 2D6 (Homo sapiens, UniProt P10635);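 further: CYP2D6 member of a cytochrome P450 panel assay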
[10] = biological target: Potassium voltage-gated channel subfamily KQT member 2 (Rattus norvegicus, UniProt O88943, W236L); experiment: potentiation of rat KCNQ2 current – cell-based, automated electrophysiology, mechanism study for KCNQ2 potentiator project, dose response (AID 2603); assay type: functional
INS1 = experiment: INS-1E survival protection against cytokine death – cell-based, luminescence, retest, dose response (AID 449756); assay type: functional; settings: Rattus norvegicus;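 further: cell death triggered by IL-1 beta plus TNF-alpha plus IFN-gamma mixture; protective hits raise ATP signal compared with cytokine alone wells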
[11] = biological target: T2, Replicative DNA helicase DnaB (Mycobacterium tuberculosis, UniProt P9WMR3); experiment: DnaB intein splicing inhibitors, dose response, biochemical, cell-free fluorescence (AID 449749); assay type: functional
T2 sequence (P9WMR3 whole entry): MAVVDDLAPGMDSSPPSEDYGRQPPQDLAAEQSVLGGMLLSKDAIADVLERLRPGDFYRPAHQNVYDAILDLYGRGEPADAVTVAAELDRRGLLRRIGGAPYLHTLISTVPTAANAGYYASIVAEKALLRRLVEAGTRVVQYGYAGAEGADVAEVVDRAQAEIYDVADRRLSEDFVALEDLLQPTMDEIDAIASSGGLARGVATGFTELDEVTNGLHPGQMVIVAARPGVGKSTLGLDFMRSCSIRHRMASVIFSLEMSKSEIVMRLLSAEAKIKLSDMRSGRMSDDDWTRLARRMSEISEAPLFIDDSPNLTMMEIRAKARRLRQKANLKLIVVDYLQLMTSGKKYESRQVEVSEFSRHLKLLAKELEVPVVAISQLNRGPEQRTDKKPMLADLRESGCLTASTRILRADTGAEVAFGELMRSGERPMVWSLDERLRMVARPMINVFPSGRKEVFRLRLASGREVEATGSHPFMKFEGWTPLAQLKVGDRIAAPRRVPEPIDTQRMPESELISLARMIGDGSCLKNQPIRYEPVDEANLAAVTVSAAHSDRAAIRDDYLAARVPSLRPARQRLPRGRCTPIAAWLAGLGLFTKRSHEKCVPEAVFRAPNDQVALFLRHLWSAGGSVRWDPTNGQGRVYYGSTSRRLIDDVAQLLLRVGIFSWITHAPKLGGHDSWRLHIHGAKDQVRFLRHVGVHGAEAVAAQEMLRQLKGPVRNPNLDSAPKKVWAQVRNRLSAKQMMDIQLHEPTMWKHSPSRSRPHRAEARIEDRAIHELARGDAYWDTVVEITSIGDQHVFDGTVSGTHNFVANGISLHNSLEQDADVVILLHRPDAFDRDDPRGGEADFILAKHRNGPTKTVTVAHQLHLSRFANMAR

BJ [12] = experiment: cells; assay type: functional, cell-based; settings: Homo sapiens
[13] = viability loss in CEM21 cells – cell-based, CellTiter-Glo luminescence, cherry-picked, cytotoxicity control for viral fusion inhibitor project, dose response (AID 652042); assay type: functional;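 further: potency for signal decrease meaning cytotoxicity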
[14] = blockers of HIV-1 envelope-mediated cell-cell fusion – cherry-pick, dose response (AID 652057); assay type: functional, cell-based
BJ [15] = experiment: growth inhibition of engineered Ras-driven BJ cells – cell-based, alamar blue fluorescence, cherrypicked samples, dose response (AID 2631); assay type: functional; settings: Homo sapiens;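 further: confirmatory dose-response assay in RAS-dependent BJ fibroblasts engineered with TERT, LT and ST, with cytotoxicity read by fluorescence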
Nonstructural protein 1 = Nonstructural protein 1 (Influenza A virus, UniProt Q194T2); assay type: functional, Influenza A virus (A/California/07/2009(H1N1))
Protein RecA = biological target: T3, Protein RecA (Mycobacterium tuberculosis, UniProt P9WHJ3); experiment: Fluorescence Cell-Free Homogeneous Dose Retest to Identify Inhibitors of RecA-Intein Splicing Activity. [Related pubchem assays (depositor defined):AID2097, AID2223, AID489010, AID492950]; assay type: functional
T3 sequence (P9WHJ3 whole entry): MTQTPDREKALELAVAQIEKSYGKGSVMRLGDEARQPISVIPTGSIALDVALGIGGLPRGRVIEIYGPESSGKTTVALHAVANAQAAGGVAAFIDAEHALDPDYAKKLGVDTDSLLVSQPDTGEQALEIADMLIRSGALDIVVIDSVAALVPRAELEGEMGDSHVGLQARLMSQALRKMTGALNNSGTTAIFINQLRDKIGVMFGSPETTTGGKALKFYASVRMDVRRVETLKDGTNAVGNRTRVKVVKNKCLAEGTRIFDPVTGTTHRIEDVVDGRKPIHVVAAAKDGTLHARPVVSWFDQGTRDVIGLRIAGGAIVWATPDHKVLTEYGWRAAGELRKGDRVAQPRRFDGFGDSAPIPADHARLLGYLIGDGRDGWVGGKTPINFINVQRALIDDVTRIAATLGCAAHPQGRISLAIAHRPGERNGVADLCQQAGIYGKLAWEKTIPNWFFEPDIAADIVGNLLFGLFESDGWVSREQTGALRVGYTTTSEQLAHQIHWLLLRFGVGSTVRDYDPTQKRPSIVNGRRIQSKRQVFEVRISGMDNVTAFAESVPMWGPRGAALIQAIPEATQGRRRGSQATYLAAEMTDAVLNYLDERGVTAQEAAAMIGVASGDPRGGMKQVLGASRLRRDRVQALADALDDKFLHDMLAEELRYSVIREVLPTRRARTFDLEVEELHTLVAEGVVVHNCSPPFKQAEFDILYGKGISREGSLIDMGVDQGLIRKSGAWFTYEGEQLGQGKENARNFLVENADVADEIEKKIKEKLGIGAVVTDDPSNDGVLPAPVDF

[16] = Intein inhibitors as potential Tuberculosis drugs, a cytotoxicity screen. [Related pubchem assays (depositor defined):AID2221, AID2223, AID434968, AID435010, AID449749, AID449750, AID489010]; assay type: functional
BJ [17] = experiment: BJ-TERT-LT-ST fibroblast viability loss – cell-based, RAS-independent, luminescence, dose response (AID 1935); assay type: functional; settings: Homo sapiens;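 further: BJ fibroblasts immortalized with TERT plus LT and ST oncogenes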
[18] = DRD fibroblast viability loss – cell-based, non-viral oncogenic, luminescence, dose response (AID 1934); assay type: functional; settings: Homo sapiens
[19] = off-target signal loss in HeLa-CEM21 co-culture – HeLa F-luc CTL cells, cherry-picked, counter-screen for HIV-1 Env fusion inhibitor project, dose response (AID 652040); assay type: functional, cell-based;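 further: potency for signal decrease marking cytotoxic or nonspecific inhibition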
[20] = HIV-1 AD8 envelope cell-cell fusion blockers – cherry-pick, dose response (AID 652062); assay type: functional, cell-based;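 further: luciferase signal from cell-cell fusion driven by HIV-1 clade B AD8 Env; potency is for inhibitors of fusion seen as a drop in luminescence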
BJ [21] = experiment: BJ-TERT fibroblast viability loss – cell-based, RAS-independent, luminescence, dose response (AID 1933); assay type: functional; settings: Homo sapiens
[22] = blockers of HIV-1 ZM109 envelope-driven cell-cell fusion – HeLa effector, CEM target cells, luciferase, cherry-pick, dose response (AID 652058); assay type: functional, cell-based;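 further: luciferase signal from HIV-1 Env mediated cell-cell fusion of effector and target cells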
[23] = biological target: T4, High affinity choline transporter 1 (Homo sapiens, UniProt Q9GZV3); experiment: human choline transporter blockers, potency – cell-based, 5-point CRC, membrane potential dye, dose response (AID 504840); assay type: functional
T4 sequence (Q9GZV3 whole entry): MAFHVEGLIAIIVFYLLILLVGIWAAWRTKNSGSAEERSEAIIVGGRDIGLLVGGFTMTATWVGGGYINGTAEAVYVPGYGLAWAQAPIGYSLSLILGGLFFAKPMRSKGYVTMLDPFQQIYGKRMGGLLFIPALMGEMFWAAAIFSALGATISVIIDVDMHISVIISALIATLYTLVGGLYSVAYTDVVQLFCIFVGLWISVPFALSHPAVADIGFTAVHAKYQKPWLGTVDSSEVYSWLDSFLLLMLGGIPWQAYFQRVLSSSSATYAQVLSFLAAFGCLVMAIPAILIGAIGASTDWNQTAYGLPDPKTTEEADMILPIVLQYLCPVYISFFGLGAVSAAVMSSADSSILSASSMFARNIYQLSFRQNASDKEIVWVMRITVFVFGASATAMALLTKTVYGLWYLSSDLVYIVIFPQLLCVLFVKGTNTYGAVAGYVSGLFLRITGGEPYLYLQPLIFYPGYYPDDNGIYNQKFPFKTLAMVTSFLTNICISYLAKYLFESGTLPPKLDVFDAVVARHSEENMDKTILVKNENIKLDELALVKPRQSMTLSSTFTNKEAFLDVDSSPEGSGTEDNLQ

In the case of `CCn1c(=O)c(C(=O)CN2CCCc3ccccc32)c(N)n(Cc2ccccc2)c1=O`, the CC50 [1] is reported as 12.4 µM (active) and the EC50 (Troponin, cardiac muscle) is reported as > 23.8 µM (inactive).

With `CCOc1ccc(N2C(=O)CC(Sc3nnnn3-c3ccccc3)C2=O)cc1` (centres undefined) the IC50 [2] was 13.4 µM (active), the IC50 [3] was 3.74 µM (active) and the AC50 [4] was 11.5 µM (active). For the same compound, the AC50 [5] was 40.3 µM (active), the AC50 [6] was 12.1 µM (active) and the IC50 (Beta-galactosidase) was > 66.6 µM (inactive).

With `O=C(N/N=C/c1ccc([N+](=O)[O-])o1)C1CCCCC1` the AC50 (Trypanosoma cruzi) was 0.501 µM (active) and the AC50 [7] was 21.5 µM (active).

For `CCOCc1cnc(C)nc1NCC(=O)c1c(C)[nH]c2ccc(OC)cc12`, the IC50 [8] was 5.53 µM (active) and the IC50 [9] was 2.59 µM (active).

In the case of `CCOC(=O)c1c(-c2ccc(C)o2)csc1NC(=S)NC(=O)N(C)C`, the AC50 (Cytochrome P450 2D6) is reported as “inconclusive”, the EC50 [10] is reported as 3.01 µM (active) and the IC50 (Beta-galactosidase) is reported as > 66.6 µM (inactive).

In the case of `C(=N\Nc1nncc2ccccc12)/c1ccccn1`, the AC50 (INS1) is reported as 1.58 µM (active), the AC50 [11] is reported as 3.19 µM (active) and the EC50 (BJ [12]) is reported as 10.8 µM (inconclusive). The AC50 [13] was 4.9 µM (active), the AC50 [14] was 0.478 µM (active) and the EC50 (BJ [15]) was 3.77 µM (active). The IC50 (Nonstructural protein 1) was 4.45 µM (active), the EC50 (Protein RecA) was 1.29 µM (active) and the CC50 [16] was 6.58 µM (active). The EC50 (BJ [17]) was 4.42 µM (active), the EC50 [18] was 5.08 µM (inconclusive) and the AC50 [19] was 4.38 µM (active). For the same compound, the AC50 [20] was 4.65 µM (active), the EC50 (BJ [21]) was 8.71 µM (inconclusive) and the AC50 [22] was < 0.26 µM (active).

In the case of `COc1cc(OC)c(C(=O)OC(C)C(=O)Nc2cccc(C(F)(F)F)c2)cc1OC` (centres undefined), the EC50 (Troponin, cardiac muscle) is reported as > 71.5 µM (inactive).

For `CC(=O)OCCCCCCCCCCC[N+]1(C)CCCCC1`, the IC50 [23] was 14.1 µM (active), the IC50 [8] was 2.17 µM (active) and the IC50 [9] was 2.03 µM (active).
